Assay results taken from patent publication US20130023555A1, “KINASE INHIBITOR WITH IMPROVED SOLUBILITY PROFILE” (Abbott Laboratories, priority 2011, published 2013).
Values after ≈ are worked out from the molar mass of the structure shown.

Key:
[1] = biological target: T1, KDR (Homo sapiens, UniProt P35968); test: HTRF in vitro kinase assay, KDR; format: biochemical; conditions: 1 mM ATP
T1 construct: KDR 789- 1354; His6 (N)
Method: (§1) To determine the activity of the various kinases, a homogenous time-resolved fluorescence (HTRF) in vitro kinase assay was used. (Mathis, G., HTRF(R) Technology. J Biomol Screen, 1999. 4(6): p. 309-314; Alfred J. Kolb, Paul V. Kaplita, David J. Hayes, Young-Whan Park, Christine Pernell, John S. Major and Gerard Mathis, Drug Discovery Today, 1998, 3, 333-342.)
(§2) For example for KDR, cKIT, FLT1, CSF1R and FTL3, purified enzyme was mixed with 0.5 μM N-biotinylated substrate (Biotin-Ahx-[…]-amide (SEQ. ID. 1)), various concentrations of inhibitor in reaction buffer (50 mM HEPES, pH 7.1, 10 mM MgCl2, 2 mM MnCl2, 0.1% BSA and 1 mM DTT, 40 μL final volume), ATP (1 mM final conc.) in a black 384-well plate. […] The quenched reaction was allowed to stand at room temperature for 3 hours and was then read in a time-resolved fluorescence detector (InVision, Perkin-Elmer) at 620 nm and 665 nm sequentially with excitation. The ratio between the signal of 620 nm and 665 nm was used in the calculation of the IC50.

[2] = biological target: T2, FLT1 (Homo sapiens, UniProt P17948); test: HTRF in vitro kinase assay, FLT1; format: biochemical; conditions: 1 mM ATP
T2 construct: His6
T2 sequence (P17948 786-1338 limits assumed): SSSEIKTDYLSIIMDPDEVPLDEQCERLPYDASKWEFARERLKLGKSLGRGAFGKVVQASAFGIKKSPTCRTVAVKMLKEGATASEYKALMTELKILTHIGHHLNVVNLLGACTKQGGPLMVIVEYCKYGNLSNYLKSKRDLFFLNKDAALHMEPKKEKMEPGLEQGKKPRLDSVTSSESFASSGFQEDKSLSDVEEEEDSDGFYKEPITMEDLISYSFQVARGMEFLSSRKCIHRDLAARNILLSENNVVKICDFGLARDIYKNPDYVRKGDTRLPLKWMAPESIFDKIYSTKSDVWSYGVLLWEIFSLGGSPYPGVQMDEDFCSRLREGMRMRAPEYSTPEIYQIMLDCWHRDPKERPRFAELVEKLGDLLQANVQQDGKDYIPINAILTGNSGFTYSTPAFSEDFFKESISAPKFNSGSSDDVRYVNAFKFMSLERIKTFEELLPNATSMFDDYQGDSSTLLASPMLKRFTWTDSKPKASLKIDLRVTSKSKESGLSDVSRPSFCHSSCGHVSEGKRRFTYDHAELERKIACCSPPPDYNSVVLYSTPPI
Method: as §1, §2

[3] = biological target: T3, Aurora A (Homo sapiens, UniProt O14965); test: Aurora A enzyme assay (time-resolved fluorescence); format: biochemical; conditions: 1 mM ATP
T3 sequence (O14965 1-403): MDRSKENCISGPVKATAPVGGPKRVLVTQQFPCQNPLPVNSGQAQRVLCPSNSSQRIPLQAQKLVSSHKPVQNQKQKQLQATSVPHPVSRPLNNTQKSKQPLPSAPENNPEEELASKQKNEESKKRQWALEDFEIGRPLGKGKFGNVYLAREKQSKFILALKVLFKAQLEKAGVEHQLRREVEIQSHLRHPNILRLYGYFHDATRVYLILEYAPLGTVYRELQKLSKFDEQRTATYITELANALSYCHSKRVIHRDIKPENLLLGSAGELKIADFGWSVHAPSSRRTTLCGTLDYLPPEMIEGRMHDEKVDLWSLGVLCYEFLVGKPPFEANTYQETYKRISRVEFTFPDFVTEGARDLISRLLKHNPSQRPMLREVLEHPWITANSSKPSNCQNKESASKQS
Method: After 1 hour, the reaction was stopped with EDTA and anti-phospho-STK antibody Europium Cryptate (Upstate) and SA-XL665 (Upstate) were added to detect the phosphopeptide. The amount of phosphorylation was determined by the time-resolved fluorescence ratio of signals at 665 nm and 615 nm. The IC50s were calculated by an exponential fit of the inhibition values with the inhibitor concentrations using Assay Explorer software.

[4] = CLND Solubility Assay; format: physicochemical
Method: Chemiluminescent nitrogen detection (CLND) method oxidized the analyte to nitrogen oxide that reacted with ozone to provide a photon of light and was a measure of how much compound was in solution. Compounds must contain nitrogens for this experiment. Nitrogen impurities present in the compound will cause falsely high results. • 1. Compound concentration tested was 35 μM in 10 mM phosphate buffer, 7.2. • 2. Compounds were tested in triplicate. • 3. Compound concentration was determined by comparing readings to a caffeine standard curve. One standard curve was run before and after every test plate. For 3 test plates, four standard curves were generated.
Experimental Procedure: • 1. 5 μl of 5 mM test compound in DMSO was added to three adjacent wells in a plate. • 2. 695 μl of 10 mM phosphate buffer, pH 7.2, was added to each well. • 3. The plates were sealed. • 4. The plates were allowed to sonicate for 1 hour. • 5. The plates were shook on a plate orbital shaker for up to 6 hours. • 6. The plates were spinned at 5000 rpm (6000×G) overnight. • 7. Standard curves were prepared by adding 5 μl of stock solutions to wells according to Caffeine Concentrations for Standard Curve table below. • 8. Buffer (10 mM phosphate buffer, pH 7.2, 695 μl) was added. • 9. The plates were sealed. • 10. The plates were loaded onto a TOC/CLND. • 11. The results were analyzed after the run was completed.
The solubility was determined by comparing the reading generated by analysis of the sample to the standard curve. The value was then divided by the number of nitrogens contained in the compound. Corrections for impurities during the synthesis were included in the number of nitrogens. The resulting value was the reported solubility.

T1 sequence (P35968 789-1354): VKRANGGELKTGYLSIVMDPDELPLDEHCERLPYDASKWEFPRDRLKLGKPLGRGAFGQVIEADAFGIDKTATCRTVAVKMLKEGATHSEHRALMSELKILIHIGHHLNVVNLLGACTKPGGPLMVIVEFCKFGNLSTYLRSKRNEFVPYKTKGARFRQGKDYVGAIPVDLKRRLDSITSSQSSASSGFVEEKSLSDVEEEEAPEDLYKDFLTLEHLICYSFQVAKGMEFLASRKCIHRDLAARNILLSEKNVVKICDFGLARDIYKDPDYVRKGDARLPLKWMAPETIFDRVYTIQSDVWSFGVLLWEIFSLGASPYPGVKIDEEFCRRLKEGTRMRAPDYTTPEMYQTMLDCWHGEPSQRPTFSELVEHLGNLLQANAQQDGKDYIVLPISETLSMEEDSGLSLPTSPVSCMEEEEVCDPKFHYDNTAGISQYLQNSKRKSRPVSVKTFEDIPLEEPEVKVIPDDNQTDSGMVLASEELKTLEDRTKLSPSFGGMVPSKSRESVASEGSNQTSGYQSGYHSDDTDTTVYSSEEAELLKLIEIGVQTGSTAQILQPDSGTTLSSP

IC50 [1]: 2 nM
IC50 [2]: 2 nM
IC50 [3]: 58 nM
solubility ([4]; aqueous buffer, kinetic from dmso stock, 35 μM compound in 10 mM phosphate buffer, pH 7.2): 6.03 µM (≈ 2.6 µg/mL)
aqueous solubility, in words ([4]; comment on Table 5): extremely low aqueous solubility
Compound: CNC(=O)c1cnc(N)c2c(-c3ccc(NC(=O)Nc4cccc(C)c4)cc3)csc12 [Example 2, 4-amino-N-methyl-3-(4-{[(3-methylphenyl)carbamoyl]amino}phenyl)thieno[3,2-c]pyridine-7-carboxamide]
